Measured values from the NIST ThermoML archive (doi:10.1021/je060271a).
Numbers after ± are expanded uncertainties.

Details: 343.15 K, Liquid, Vibrating tube method

SMILES: CCCC(=O)OCC(COC(=O)CCC)(COC(=O)CCC)COC(=O)CCC [pentaerythritol tetrabutyrate]
- mass density (14185 kPa): 1019 ± 1.2 kg/m3
- mass density (14223 kPa): 1019.1 ± 1.2 kg/m3
- mass density (14263 kPa): 1019 ± 1.2 kg/m3
- mass density (14296 kPa): 1019.1 ± 1.2 kg/m3
- mass density (14334 kPa): 1019.1 ± 1.2 kg/m3
- mass density (14374 kPa): 1019.1 ± 1.2 kg/m3
- mass density (14412 kPa): 1019.1 ± 1.2 kg/m3
- mass density (14452 kPa): 1019.2 ± 1.2 kg/m3
- mass density (14485 kPa): 1019.2 ± 1.2 kg/m3
- mass density (14525 kPa): 1019.1 ± 1.2 kg/m3
- mass density (14564 kPa): 1019.1 ± 1.2 kg/m3
- mass density (14606 kPa): 1019.2 ± 1.2 kg/m3
- mass density (14639 kPa): 1019.3 ± 1.2 kg/m3
- mass density (14680 kPa): 1019.3 ± 1.2 kg/m3
- mass density (14721 kPa): 1019.3 ± 1.2 kg/m3
- mass density (14764 kPa): 1019.4 ± 1.2 kg/m3
- mass density (14805 kPa): 1019.4 ± 1.2 kg/m3
- mass density (14840 kPa): 1019.4 ± 1.2 kg/m3
- mass density (15093 kPa): 1019.6 ± 1.2 kg/m3
- mass density (15139 kPa): 1019.6 ± 1.2 kg/m3
- mass density (15180 kPa): 1019.6 ± 1.2 kg/m3
- mass density (15211 kPa): 1019.8 ± 1.2 kg/m3
- mass density (15248 kPa): 1019.7 ± 1.2 kg/m3
- mass density (15286 kPa): 1019.7 ± 1.2 kg/m3
- mass density (15317 kPa): 1019.7 ± 1.2 kg/m3
- mass density (15355 kPa): 1019.8 ± 1.2 kg/m3
- mass density (15392 kPa): 1019.8 ± 1.2 kg/m3
- mass density (15430 kPa): 1019.8 ± 1.2 kg/m3
- mass density (15469 kPa): 1019.9 ± 1.2 kg/m3
- mass density (15538 kPa): 1019.9 ± 1.2 kg/m3
- mass density (15616 kPa): 1020 ± 1.2 kg/m3
- mass density (15655 kPa): 1019.9 ± 1.2 kg/m3
- mass density (15688 kPa): 1020.1 ± 1.2 kg/m3
- mass density (15727 kPa): 1020.1 ± 1.2 kg/m3
- mass density (15769 kPa): 1020 ± 1.2 kg/m3
- mass density (15802 kPa): 1020.2 ± 1.2 kg/m3
- mass density (15842 kPa): 1020.2 ± 1.2 kg/m3
- mass density (15881 kPa): 1020.2 ± 1.2 kg/m3
- mass density (15922 kPa): 1020.2 ± 1.2 kg/m3
- mass density (15956 kPa): 1020.2 ± 1.2 kg/m3
- mass density (15997 kPa): 1020.2 ± 1.2 kg/m3
- mass density (16038 kPa): 1020.3 ± 1.2 kg/m3
- mass density (16079 kPa): 1020.2 ± 1.2 kg/m3
- mass density (16120 kPa): 1020.4 ± 1.2 kg/m3
- mass density (16154 kPa): 1020.3 ± 1.2 kg/m3
- mass density (16195 kPa): 1020.4 ± 1.2 kg/m3
- mass density (16239 kPa): 1020.3 ± 1.2 kg/m3
- mass density (16276 kPa): 1020.5 ± 1.2 kg/m3
- mass density (16318 kPa): 1020.4 ± 1.2 kg/m3
- mass density (16360 kPa): 1020.5 ± 1.2 kg/m3
- mass density (16403 kPa): 1020.5 ± 1.2 kg/m3
- mass density (16446 kPa): 1020.6 ± 1.2 kg/m3
- mass density (16489 kPa): 1020.5 ± 1.2 kg/m3
- mass density (16526 kPa): 1020.6 ± 1.2 kg/m3
- mass density (16570 kPa): 1020.6 ± 1.2 kg/m3
- mass density (16614 kPa): 1020.7 ± 1.2 kg/m3
- mass density (16659 kPa): 1020.6 ± 1.2 kg/m3
- mass density (16696 kPa): 1020.7 ± 1.2 kg/m3
- mass density (16741 kPa): 1020.8 ± 1.2 kg/m3
- mass density (16787 kPa): 1020.9 ± 1.2 kg/m3
- mass density (16833 kPa): 1020.9 ± 1.2 kg/m3
- mass density (16879 kPa): 1020.9 ± 1.2 kg/m3
- mass density (16918 kPa): 1021 ± 1.2 kg/m3
- mass density (16964 kPa): 1021 ± 1.2 kg/m3
- mass density (17012 kPa): 1020.9 ± 1.2 kg/m3
- mass density (17052 kPa): 1021 ± 1.2 kg/m3
- mass density (17100 kPa): 1021.1 ± 1.2 kg/m3
- mass density (17143 kPa): 1021.2 ± 1.2 kg/m3
- mass density (17186 kPa): 1021 ± 1.2 kg/m3
- mass density (17229 kPa): 1021.2 ± 1.2 kg/m3
- mass density (17265 kPa): 1021.1 ± 1.2 kg/m3
- mass density (17310 kPa): 1021.1 ± 1.2 kg/m3
- mass density (17355 kPa): 1021.3 ± 1.2 kg/m3
- mass density (17393 kPa): 1021.2 ± 1.2 kg/m3
- mass density (17439 kPa): 1021.3 ± 1.2 kg/m3
- mass density (17485 kPa): 1021.2 ± 1.2 kg/m3
- mass density (17525 kPa): 1021.4 ± 1.2 kg/m3
- mass density (17560 kPa): 1021.3 ± 1.2 kg/m3
- mass density (17590 kPa): 1021.4 ± 1.2 kg/m3
- mass density (17624 kPa): 1021.4 ± 1.2 kg/m3
- mass density (17660 kPa): 1021.5 ± 1.2 kg/m3
- mass density (17694 kPa): 1021.4 ± 1.2 kg/m3
- mass density (17730 kPa): 1021.5 ± 1.2 kg/m3
- mass density (17760 kPa): 1021.5 ± 1.2 kg/m3
- mass density (17796 kPa): 1021.6 ± 1.2 kg/m3
- mass density (17870 kPa): 1021.5 ± 1.2 kg/m3
- mass density (17900 kPa): 1021.5 ± 1.2 kg/m3
- mass density (17935 kPa): 1021.6 ± 1.2 kg/m3
- mass density (17972 kPa): 1021.8 ± 1.2 kg/m3
- mass density (18009 kPa): 1021.6 ± 1.2 kg/m3
- mass density (18039 kPa): 1021.7 ± 1.2 kg/m3
- mass density (18076 kPa): 1021.8 ± 1.2 kg/m3
- mass density (18113 kPa): 1021.7 ± 1.2 kg/m3
- mass density (18150 kPa): 1021.8 ± 1.2 kg/m3
- mass density (18187 kPa): 1021.7 ± 1.2 kg/m3
- mass density (18218 kPa): 1021.8 ± 1.2 kg/m3
- mass density (18256 kPa): 1021.9 ± 1.2 kg/m3
- mass density (18294 kPa): 1021.8 ± 1.2 kg/m3
- mass density (18332 kPa): 1022 ± 1.2 kg/m3
- mass density (18370 kPa): 1021.9 ± 1.2 kg/m3
- mass density (18402 kPa): 1021.9 ± 1.2 kg/m3
- mass density (18441 kPa): 1022 ± 1.2 kg/m3
- mass density (18479 kPa): 1022 ± 1.2 kg/m3
- mass density (18518 kPa): 1022.1 ± 1.2 kg/m3
- mass density (18552 kPa): 1022.2 ± 1.2 kg/m3
- mass density (18590 kPa): 1022.1 ± 1.2 kg/m3
- mass density (18630 kPa): 1022.1 ± 1.2 kg/m3
- mass density (18669 kPa): 1022.1 ± 1.2 kg/m3
- mass density (18703 kPa): 1022.1 ± 1.2 kg/m3
- mass density (18742 kPa): 1022.2 ± 1.2 kg/m3
- mass density (18784 kPa): 1022.2 ± 1.2 kg/m3
- mass density (18824 kPa): 1022.3 ± 1.2 kg/m3
- mass density (18864 kPa): 1022.3 ± 1.2 kg/m3
- mass density (18898 kPa): 1022.2 ± 1.2 kg/m3
- mass density (18938 kPa): 1022.4 ± 1.2 kg/m3
- mass density (18978 kPa): 1022.3 ± 1.2 kg/m3
- mass density (19020 kPa): 1022.4 ± 1.2 kg/m3
- mass density (19054 kPa): 1022.4 ± 1.2 kg/m3
- mass density (19096 kPa): 1022.5 ± 1.2 kg/m3
- mass density (19138 kPa): 1022.5 ± 1.2 kg/m3
- mass density (19216 kPa): 1022.5 ± 1.2 kg/m3
- mass density (19297 kPa): 1022.6 ± 1.2 kg/m3
- mass density (19340 kPa): 1022.6 ± 1.2 kg/m3
- mass density (19382 kPa): 1022.6 ± 1.2 kg/m3
- mass density (19425 kPa): 1022.6 ± 1.2 kg/m3
- mass density (19468 kPa): 1022.7 ± 1.2 kg/m3
- mass density (19504 kPa): 1022.8 ± 1.2 kg/m3
- mass density (19548 kPa): 1022.7 ± 1.2 kg/m3
- mass density (19591 kPa): 1022.9 ± 1.2 kg/m3
- mass density (19634 kPa): 1022.7 ± 1.2 kg/m3
- mass density (19679 kPa): 1022.9 ± 1.2 kg/m3
- mass density (19717 kPa): 1022.8 ± 1.2 kg/m3
- mass density (19761 kPa): 1022.8 ± 1.2 kg/m3
- mass density (19809 kPa): 1022.9 ± 1.2 kg/m3
- mass density (19854 kPa): 1022.9 ± 1.2 kg/m3
- mass density (19892 kPa): 1023 ± 1.2 kg/m3
- mass density (19938 kPa): 1023 ± 1.2 kg/m3
- mass density (19984 kPa): 1023.1 ± 1.2 kg/m3
- mass density (20022 kPa): 1023.2 ± 1.2 kg/m3
- mass density (20068 kPa): 1023.1 ± 1.2 kg/m3
- mass density (20115 kPa): 1023.2 ± 1.2 kg/m3
- mass density (20161 kPa): 1023.1 ± 1.2 kg/m3
- mass density (20200 kPa): 1023.2 ± 1.2 kg/m3
- mass density (20247 kPa): 1023.1 ± 1.2 kg/m3
- mass density (20294 kPa): 1023.1 ± 1.2 kg/m3
- mass density (20341 kPa): 1023.3 ± 1.2 kg/m3
